Literature values as cited in PMC6669827 (Toxins, 2019).

Test system: rat α9α10 nAChR
Settings: cited from earlier work

## Vc1.1
  affinity for rat versus human α9/α10 (in words): the affinity is higher for the rat subtypes
